Data published in patent US5424424A, “Tartaric acid derivatives of substituted dibenzoxazepine compounds, pharmaceutical compositions and methods of use” (G. D. Searle & Co., priority 1993, dated 1995).
Where a name gives a salt, the structure may show the parent alone.

Assays:
[1] = test system: prostaglandin E2-induced contractions of segments of guinea pig ileum; experiment: Prostaglandin (PGE) Antagonism Assay in guinea pig ileum; assay type: tissue-based, Male albino guinea pigs; settings: dose ratio of prostaglandin E2 EC50 values; initial concentration 3 micromolar test compound, 37° C., incubated thirty minutes
Method: In order to determine the effectiveness of several of the compounds of the present invention ("test compounds") as prostaglandin E2 antagonists,a prostaglandin antagonism assay was conducted, as described below, to determine the ability of these compounds to inhibit prostaglandin E2 -induced contractions of segments of guinea pig ileum.
Male albino guinea pigs weighing 200 to 500 grams were sacrificed by cervical dislocation. The ilea were then quickly removed from the guinea pigs and placed in a modified Tyrode solution, a solution which is known to those skilled in the art, containing one-half of the usual amount of magnesium ions.
Segments of ileum about 2 cm long were then cut and mounted in a 10 mL tissue bath containing the modified Tyrode solution. The solution was maintained at 37° C. and aerated with a gaseous mixture of 95% oxygen and 5% carbon dioxide. Data for a control prostaglandin E2 dose response curve plotting concentration of prostaglandin E2 versus the intensity of contractions, detected isotonically, was then obtained by experimentally adjusting the dose of the prostaglandin E2 being injected into the tissue bath, in a manner known by those of skill in the art.
Solutions or suspensions containing an initial concentration (3 micromolar) of a test compound in modified Tyrode solution ("test solutions/suspensions") were then separately substituted for the control bath solution. Each test solution/suspension was then kept in constant contact with the ileum tissue, except for brief periods to drain the bath in preparation for rinsing with fresh test solution/suspension. A second prostaglandin E2 dose response curve was then generated for prostaglandin E2 in the presence of a test compound.
A control dose response curve is produced in isolated segments of guinea pig ileum mounted in an automated apparatus with six concentrations of prostaglandin E2. A solution or suspension of test compound is substituted for the control bathing solution and is incubated for thirty minutes. An additional prostaglandin E2 dose response curve is then performed in the presence of the test compound. A dose ratio is calculated from the EC50 values obtained from duplicate replications on each concentration of the test compound.
A dose ratio of EC50 doses was calculated from the results of each test in a manner known by those of skill in the art, and described above.
The compounds of the present invention which were tested in this assay, and for which results are presented in Table 1, correspond to the particular examples specified in Table 1.

mice = experiment: Writhing Assay (phenylbenzoquinone-induced writhing, analgesia); assay type: in vivo, Charles River male albino mice; settings: 30 mg per kilogram, intragastric, 30 minutes before PBQ i.p.; analgesia = writhes equal to or less than one-half the median of saline control
Excerpt: The Writhing Assay is one of the most widely-used experimental procedures for measuring the analgesic activity of different narcotic and nonnarcotic analgesic agents, and involves the continuous, chemically-induced pain of visceral origin to an animal, such as a mouse or rat. [Gyires et al., Arch. int. Pharmacodyn, 267, 131-140 (984); C. Vander Wende et al., Fed. Proc., 15, 494 (1956); Koster et al., Fed. Proc., 18, 412 (1959); and Witken et al., J. Pharmacol. exp. Ther., 133, 400-408 (1961).] Chemicals which may be used to induce this pain include phenylbenzoquinone (PBQ) and acetic acid. As a result of the chemical irritation to the animal, a characteristic stretching and writhing of the animal (dorsiflexion of the animal's back, extension of its hindlimbs and the strong contraction of its abdominal musculature) will generally occur. […] Drugs which reduce the number of writhes of the animal appear to restore the normal nociceptive threshold of the animal.
Charles River male albino mice, weighing 20 to 30 grams, were used in this assay.
Thirty minutes after intragastric administration to ten mice of 30 mg per kilogram of body weight of a compound of the present invention ("test compound"), […] per 10 g of body weight of a 0.025% w/v solution of PB was injected intraperitoneally into each mouse. Ten mice which were given saline in place of a test compound of the invention were used as a control group.
Five minutes later, each mouse was individually placed into a glass beaker for observation, and the number of writhes occurring during the following ten-minute period was counted.
A test compound was considered to have produced analgesia in a mouse if, in accordance with the conditions set forth above, and under the test criteria employed for this assay, after the administration of 30 mg per kilogram of body weight of a compound of the present invention to the mouse, the number of writhes elicited by a mouse injected with PBQ was equal to, or less than, one-half the median number of writhes recorded for the saline-treated control group of mice that day, as described by Taber in "Predictive Value of Analgesic Assays in Mice and Rats," Advances in Biochemical Psychopharmacology, 8, 191 (1974).
The results for the particular compounds of the present invention analyzed in this assay, and discussed in the examples identified below which correspond thereto, are presented in Table 1 hereinbelow as fractions under the heading "WRITHING ASSAY." The fractions indicate the number of mice out of ten in which a test compound produced analgesia.

SMILES | PGE ANTAGONISM IN GUINEA PIG ILEUM Dose Ratio [1] | WRITHING ASSAY I.G.: number of mice out of ten in which a test compound produced analgesia (mice)
CC(=O)O[C@@H](C(=O)NCc1cccnc1)[C@@H](OC(C)=O)C(=O)N1Cc2ccccc2Oc2ccc(Cl)cc21 [Example 8, αR,βR-Bis(acetyloxy)-8-chloro-γ-oxo-N-(3-pyridinylmethyl)dibenz[b,f][1,4]oxazepine-10(11H)]-butanamide, hydrochloride] | 2.4 | 6/10
CC(=O)O[C@H](C(=O)NCc1cccnc1)[C@H](OC(C)=O)C(=O)N1Cc2ccccc2Oc2ccc(Cl)cc21 [Example 4, αS,βS-Bis(acetyloxy)-8-chloro-γ-oxo-N-(3-pyridinylmethyl)-dibenz[b,f][1,4]oxazepine-10(11H)-butanamide, hydrochloride] | 0.74 | 9/10
CC(=O)O[C@H](C(=O)NCCN(C)C)[C@H](OC(C)=O)C(=O)N1Cc2ccccc2Oc2ccc(Cl)cc21 [Example 2, αS,βS-Bis(acetyloxy)-8-chloro-N-[2-(dimethylamino)ethyl]-γ-oxodibenz[b,f][1,4]oxazepine-10(11H)-butanamide, monohydrochloride] | – | 0/10
CC(=O)O[C@@H](C(=O)NCc1ccncc1)[C@@H](OC(C)=O)C(=O)N1Cc2ccccc2Oc2ccc(Cl)cc21 [Example 7, αR,βR-Bis(acetyloxy)-8-chloro-γ-oxo-N-(4-pyridinylmethyl)dibenz[b,f][1,4]oxazepine-10(11H)-butanamide, hydrochloride] | 1.2 | 8/10
CC(=O)O[C@@H](C(=O)NCc1ccccn1)[C@@H](OC(C)=O)C(=O)N1Cc2ccccc2Oc2ccc(Cl)cc21 [Example 9, αR,βR-Bis(acetyloxy)-8-chloro-γ-oxo-N-(2-pyridinylmethyl)dibenz[b,f][1,4]oxazepine-10(11H)-butanamide, hydrochloride] | 1.1 | 5/10
CC(=O)O[C@H](C(=O)NCc1ccccn1)[C@H](OC(C)=O)C(=O)N1Cc2ccccc2Oc2ccc(Cl)cc21 [Example 5, αS,βS-Bis(acetyloxy)-8-chloro-γ-oxo-N-(2-pyridinylmethyl)dibenz[b,f][1,4]oxazepine-10(11H)-butanamide, hydrochloride] | 1.7 | 5/10
CC(=O)O[C@H](C(=O)NCc1ccncc1)[C@H](OC(C)=O)C(=O)N1Cc2ccccc2Oc2ccc(Cl)cc21 [Example 3, αS,βS-Bis(acetyloxy)-8-chloro-γ-oxo-N-(4-pyridinylmethyl)-dibenz[b,f][1,4]oxazepine-10(11H)-butanamide, hydrochloride] | 1.3 | 5/10
